Three compounds from patent US4371673A, “Water soluble forms of retinoids” (The United States of America as represented by the …, priority 1980, dated 1983) can be followed below.

Values after ≈ are worked out from the molar mass of the structure shown. Values joined by “and” are separate entries in the source; they are usually repeats but may differ in a detail not shown here. Identical values can stand only once. Like-named read-outs stand apart in the source and are kept apart here. Where only a bound is given, the exact number is not on record here.

For data set [1], the system named is vitamin A-deficient rats. The data set can be described thus: Vitamin A-like activity measured by survival of rats fed vitamin A-deficient diet. The data set is classed as in vivo, rat (male weanling albino, Holtzman). The conditions noted are these: for No. of surviving animals/total: 100 μg retinal equivalent for complex. The procedure:
Studies were undertaken to determine whether the chemical modification of retinoids to polymer-linked water soluble forms alter its biological activities. Specifically, the vitamin A-like activity of the mixed α-, β-dextrin complex of retinal-carboxymethyldextran hydrazone was tested on rats made vitamin A-deficient. The "animals" referred to herein should be construed as meaning rats.
To prepare the rats for dietary studies, male weanling albino rats of the Holtzman string were fed a vitamin A-deficient diet until a weight plateau was reached. A cyclic program was then begun in which the rats which were provided with the deficient diet were supplemented with retinoic acid at a rate of 2 μg per g. This was continued for 18 days followed by 10 days of the original deficient diet. At the termination of the fourth 18-day period in which the rats were fed the retinoic acid supplemented diet, the rats were fed for 7 days with the deficient diet and then used in two types of experiments: (a) Studies of the resorption of retinal-carboxymethyldextran hydrazone from the gastrointestinal tract and (b) studies of growth support for avitamineosis. The results of the resorption studies (a) were determined by spectrophotometrically analyzing for retinol in the serum or liver. The vitamin A-like activity of the complexes of the present invention (b) was evaluated by comparison of survival rates of a control group, those fed a cyclodextrin complex of a retinoid-polymer and those fed a free retinoid derivative.
^a The control rats received 0.2 mL of cottonseed oil
intraperitoneally while the treated animals received […] of retinyl
acetate or retinoic acid in 0.2 mL cottonseed oil or retinaldextran
complex (100 μg of retinal equivalent) in 0.2 mL water. Subsequently,
the rats received a vitamin Adeficient diet for periods indicated in the
Table and their survival was followed.
In the second series of experiments, compared in Table 2, the retinal-carboxymethyldextran complex was administered intraperitoneally and the survival of the vitamin A-deficient rats was followed during the 28 to 35 days of a vitamin A-deficient diet. […] In contrast, the control rats as well as those rats which received retinoic acid (Experiment 3) died.

A short description of data set [2]: Direct solubilization of retinoids by cyclodextrins and their derivatives. It is filed as physicochemical. To be noted: read-out: Solubility of retinoid in physiological buffered saline. From the text: It has been discovered that by appropriately selecting a derivatized cyclodextrin, it is unnecessary to prepare a retinoid-polymer compound preliminary to, or concurrent with, the preparation of the complex. This greatly simplifies the process of dissolving a retinoid. Thus, to prepare a solution of the cyclodextrin retinoid complex, it is merely necessary to add the components, retinoid and cyclodextrin, with stirring to an aqueous medium, such as a saline or isotonic solution, at room temperature. If one has a suitable cyclodextrin available, it is unnecessary to synthesize the cyclodextrin retinoid-polymer.
Some examples of the solubility obtained for retinoid-dextrin complexes of the present invention in physiologically acceptable solutions are presented in Table 1. It may be noted that while the solubility of a complex of one retinoid with a particular cyclodextrin may not be great, the solubility of a complex of another retinoid, using the same cyclodextrin, may be increased several orders of magnitude.
Solubility of retinoid (μg/ml)
in physiological buffered saline
(NaCl, 8 g/L; Na2 HPO4.7H2 O,
2.2g/L; KCl, 0.2 g/L and […]

Data set [3] deals with vitamin A-deficient rats. The data set can be described thus: Retinol in serum and liver of treated vitamin A-deficient rats (spectrophotometric), resorption studies. More on the design: species or system rat (male weanling albino, Holtzman). The conditions noted are these: rat, in vivo, ip.
The test system of data set [4] is S91 melanoma cells. Put plainly: S91 melanoma cell proliferation (growth inhibition). The data set is classed as cell-based. To be noted: for inhibition at 0.2 µM: Mus musculus, S91, 144 h, read-out: Percentage of growth inhibition. The method, then:
Medium was chaged on Day 3. The cells were treated for 6 days

The nature of data set [5]: physchem. To be noted: isotonic buffered saline.
Excerpt: The concentration of retinal in the complex was estimated by comparison of the absorbance at the peak of the absorbance spectrum with the absorbance of free retinal in ethanol at 380 nm.
Data set [6] is described as follows: in vitro. The conditions noted are these: mouse, s9. From the text: Decreased plating efficiency and cell lysis are considered indications of cytotoxic effects.
[7] abbreviates: buffered saline with α-cyclodextrin, α-cyclodextrin, 50 mg/ml.
Setting [8] is: buffered saline with β-cyclodextrin, β-cyclodextrin, 17 mg/ml.
Setting [9] is: physiological buffered saline, dodecakis-2,6-O-methyl-α-cyclodextrin, 25 mg/ml.
Setting [10] is: physiological buffered saline, hexadecakis-2,6-O-methyl-γ-cyclodextrin, 25 mg/ml.
The mark [11] stands for this setting: physiological buffered saline, solubilization agent: none.
The mark [12] stands for this setting: physiological buffered saline, tetradecakis-2,6-O-methyl-β-cyclodextrin, 50 mg/ml.
Where [13] appears, read: physiological buffered saline, γ-cyclodextrin, 50 mg/ml.

By solubility is commonly meant the concentration that dissolves in the medium under given conditions. For the compound `CC1=C(/C=C/C(C)=C/C=C/C(C)=C/C(=O)O)C(C)(C)CCC1` [retinoic acid], in data set [1] (Experiment 3, individual animals), the “day of death of animals” value is 14 days and 28 days and 30 days. In addition, the “No. of surviving animals/total” value in data set [1] (Experiment 3, 31 days on vitamin A-deficient diet, intraperitoneal) is reported as 0/3. In data set [1] (intraperitoneal, 28 to 35 days of vitamin A-deficient diet), the “survival / vitamin A-like activity (in words)” value is listed as “died”. Moreover, the solubility is 140 µg/mL (≈ 466 µM) in data set [2] (setting [7]); 2000 µg/mL (≈ 6660 µM) in data set [2] (setting [8]); 460 µg/mL (≈ 1530 µM) in data set [2] (setting [9]); 140 µg/mL (≈ 466 µM) in data set [2] (setting [10]); 20 µg/mL (≈ 66.6 µM) in data set [2] (setting [11]); 460 µg/mL (≈ 1530 µM) in data set [2] (setting [12]). The solubility in data set [2] (setting [13]) came out at 130 µg/mL (≈ 433 µM). Besides, the “Serum retinol (in words)” value in data set [3] is “not detectable”.
As for `CC(=O)OC/C=C(C)/C=C/C=C(C)/C=C/C1=C(C)CCCC1(C)C` [Retinyl acetate], the “No. of surviving animals/total” value in data set [1] (Experiment 1, 35 days on vitamin A-deficient diet, intraperitoneal) is listed as 3/3; in data set [1] (Experiment 2, 28 days on vitamin A-deficient diet, intraperitoneal), 4/4.
Usually inhibition stands for how much of the control response was suppressed. With `CC1=C(/C=C/C(C)=C/C=C/C(C)=C/C=O)C(C)(C)CCC1` [retinal], the “growth rate of cells after 48 hours (in words)” value in data set [4] (48 hours, retinal 1 μM, complex 10 μM retinal moiety, FIG. 3, vs untreated controls) is on record as “reduced in comparison to the untreated controls”. Besides, in data set [4] (6 days, below 2 μM (retinal) and 40 μM (complex), FIG. 2), the “growth inhibition, dose dependence (in words)” value is on record as “dose-dependent inhibition”. The inhibition at 0.2 µM in data set [4] (0.2 μM, 6 days) was determined as 28%; in data set [4] (second retinal line, printed 0.2 μM, 6 days), 52%. Besides, the “relative potency as growth inhibitor (in words)” value in data set [4] (all concentrations where retinal is not toxic) is listed as “more potent inhibitor than the corresponding complex”. In addition, the “inhibition of cell proliferation, first 24 hours (in words)” value in data set [4] (first 24 hours, retinal 1 μM, complex 10 μM retinal moiety, FIG. 3) is given as “no apparent inhibition of cell proliferation”. The solubility is less than 0.01 µg/mL in data set [5]; 4 µg/mL (≈ 14.1 µM) in data set [2] (setting [7]); 2 µg/mL (≈ 7.03 µM) in data set [2] (setting [8]); 7 µg/mL (≈ 24.6 µM) in data set [2] (setting [9]); 4 µg/mL (≈ 14.1 µM) in data set [2] (setting [10]); less than 1 µg/mL in data set [2] (setting [11]). The solubility in data set [2] (setting [12]) is 570 µg/mL (≈ 2000 µM); in data set [2] (setting [13]), 1 µg/mL (≈ 3.52 µM). In data set [6], this compound yielded a CC50 of 4 µM. The compound further registered an MCC in data set [6] of no less than 10 µM. The MNTC in data set [6] is 2000 nM.
